According to US4510144A, “Methods of imparting immunomodulating activity with dihydrothiazolo purine derivatives” (Newport Pharmaceuticals International, priority 1982, dated 1985):
Where two headings read alike, the source gives them in different places.

Test system: murine spleen cells, LPS induced (B-cells)
Experiment: LPS induced lymphocyte proliferation in mouse spleen cells in vitro
Type: cell-based, mouse (Balb/C)
Conditions: for activity at 0.01 µg/mL / activity at 0.1 µg/mL / activity at 1 µg/mL / activity at 2.5 µg/mL / activity at 5 µg/mL / activity at 25 µg/mL / activity at 50 µg/mL: Mus musculus, B-cell
From the text: (1) Mitogen-(Lipopolysaccharide, LPS or Con A) induced lymphocyte proliferation using murine spleen cells (in vitro)
1. […] LPS is a mitogen which acts preferentially on B-cells. […] Con A is considered a T-cell mitogen.
1. Balb/C male mice, 7-8 weeks old, are used up to 20-24 weeks of age.
2. The animals are sacrificed by cervical dislocation and the animals' left sides swabbed with 70% ethanol. An incision is made between the lower ribs and pelvis, laterally from front to back, and the skin retracted. Aseptic technique is to be observed from this point on.
3. The spleen is gently removed with sterile forceps. […] When all spleens have been collected and cleaned they are placed in a second petri dish containing 3 ml cold RPMI.
4. Spleen cell suspensions are prepared by gentle mincing of the tissue with a sterile blade and filtering through #100 stainless steel mesh.
6. An aliquot of the above suspension is prepared for cell counting as follows: 0.1 ml of suspension is diluted to 1.0 ml with 3% acetic acid and let stand at room temperature for at least five minutes. The sample is then diluted 1:100 with "Isoton II" (Curtis-Matheson Co.) and counted in a coulter counter.
MURINE SPLENOCYTE STIMULATION WITH CONCANAVALIN A (CON A), LIPOPOLYSACCHARIDE (LPS), AND ALLOGENEIC SPLENOCYTES (LMC).
There is set forth below the standard procedure which should be modified according to the solubility and other properties of the particular compound tested.
Add ~10 ml RPMI to 1.79 g HEPES and vortex until completely dissolved. […] Allow to warm temperature before use.
6. LPS (Sigma, E, coli serotype #011:84)--~1 mg/ml. […] Remove ~10 ml for dissolving HEPES (0.358 g) and filter HEPES solution. Add four 25 mg bottles of LPS to remaining media and incubate at 37° C. for 1 hour. Filter through 0.22 μm filters, add filtered HEPES, aliquot in 2 ml and store at -70° C.
8. Tritiated thymidine (^3 H-TdR, Schwartz-Mann, 6 Ci/mM). Remove a slightly larger volume of ^3 H-TdR than needed from vial with a 1 cc syringe and place volume in the cap of a small sterile plastic tube. […] Vortex thoroughly before adding to plates.
1. Animals are sacrificed by cervical dislocation killing one from each group and processing the cells individually before killing the next animal. Swab each animal with 70% ethanol before surgery. […] Use 8 vertical strokes (or enough to break up all tissue) with Teflon-tipped homogenizer. Filter each sample through a 100 mesh screen into a 50 ml tube. […] After all samples have been spun, vortex each briefly and let sit for 1 hour. Vortex each sample ~5 seconds, waiting ~10 seconds between each sample. Let sit 5 minutes, then pipet cell suspension into 5 ml (12×75 mm) tube being careful not to remove any sediment. Remove 50 ul cell suspension using micropipetter, carefully wipe pipet tip with kimwipe and pipet into 20 ml Isoton in Coulter counter vial, rinsing pipet several times in the Isoton. Add 6 drops of CyMet and swirl vial to mix. Use the following Coulter counter settings: Amplification-1, Threshold-10, and Aperture Current-1. Clean counter with Isoterge the morning of experiment and count background before standardizing with CH 0.60 Hematology Controls. After cell counts are obtained, dilute to 6×10^6 cells/ml with supplemented RPMI and aliquot into 3 tubes for the 3 assays.
1. Pipet 100 μl control media (supplemented RPMI) or appropriate dilution of mitogen (starting with lowest concentration) into microtiter plate using Titertek multi-channel pipetter. Place plates in 37° C. CO2 incubator with CO2 set at 0.5 after each plate has been pipetted. Pipet 100 μl responder cells into wells starting with most dilute mitogen concentration. Place plates in incubator as they are filled and after all plates are in incubator, let sit for 10-20 minutes. Wrap plates with plastic wrap, recover with top, replace in incubator, and reset CO2 to ~0.05. Save ~50 ml supplemented RPMI at 4° C. for thymidine dilution.

Oc1ncnc2c1nc1n2CCS1 [NPT 16416, 3-hydroxy-7,8-dihydrothiazolo-[3,2e]-purine]
activity at 0.01 µg/mL (read-out: Hi Mitogen D/C LPS): 105% | activity at 0.01 µg/mL (read-out: Lo Mitogen D/C LPS): 130% | activity at 0.1 µg/mL (drug 100 ng/ml, LPS 5 μg/ml, drug/control, read-out: Lo Mitogen D/C LPS): 157% | activity at 0.1 µg/mL (drug 100 ng/ml, LPS 100 μg/ml, drug/control, read-out: Hi Mitogen D/C LPS): 114% | activity at 1 µg/mL (drug 1,000 ng/ml, LPS 5 μg/ml, drug/control, read-out: Lo Mitogen D/C LPS): 135% | activity at 1 µg/mL (drug 1,000 ng/ml, LPS 5 μg/ml, read-out: LPS D/C (maximum values)): 201% | activity at 1 µg/mL (drug 1,000 ng/ml, LPS 100 μg/ml, drug/control, read-out: Hi Mitogen D/C LPS): 117% | activity at 2.5 µg/mL (drug 2,500 ng/ml, LPS 5 μg/ml, drug/control, read-out: Lo Mitogen D/C LPS): 136% | activity at 2.5 µg/mL (drug 2,500 ng/ml, LPS 100 μg/ml, drug/control, read-out: Hi Mitogen D/C LPS): 107% | activity at 5 µg/mL (drug 5,000 ng/ml, LPS 5 μg/ml, drug/control, P < 0.05, read-out: Lo Mitogen D/C LPS): 168% | activity at 5 µg/mL (drug 5,000 ng/ml, LPS 100 μg/ml, drug/control, read-out: Hi Mitogen D/C LPS): 105% | activity at 25 µg/mL (drug 25,000 ng/ml, LPS 5 μg/ml, drug/control, P < 0.005, read-out: Lo Mitogen D/C LPS): 249% | activity at 25 µg/mL (drug 25,000 ng/ml, LPS 5 μg/ml, read-out: LPS D/C (maximum values)): 236% | activity at 25 µg/mL (drug 25,000 ng/ml, LPS 100 μg/ml, drug/control, P < 0.025, read-out: Hi Mitogen D/C LPS): 157% | activity at 50 µg/mL (drug 50,000 ng/ml, LPS 5 μg/ml, drug/control, P < 0.005, read-out: Lo Mitogen D/C LPS): 280% | activity at 50 µg/mL (drug 50,000 ng/ml, LPS 100 μg/ml, drug/control, P < 0.005, read-out: Hi Mitogen D/C LPS): 189% | CPM + LPS (drug 10 ng/ml, LPS 5 μg/ml): 1,458 CPM | CPM + LPS (drug 10 ng/ml, LPS 100 μg/ml): 8,603 CPM | CPM + LPS (drug 100 ng/ml, LPS 5 μg/ml): 1,760 CPM | CPM + LPS (drug 100 ng/ml, LPS 100 μg/ml): 8,518 CPM | CPM + LPS (drug 1,000 ng/ml, LPS 5 μg/ml): 1,515 CPM | CPM + LPS (drug 1,000 ng/ml, LPS 100 μg/ml): 8,689 CPM | CPM + LPS (drug 2,500 ng/ml, LPS 5 μg/ml): 1,522 CPM | CPM + LPS (drug 2,500 ng/ml, LPS 100 μg/ml): 7,975 CPM | CPM + LPS (drug 5,000 ng/ml, LPS 5 μg/ml): 1,881 CPM | CPM + LPS (drug 5,000 ng/ml, LPS 100 μg/ml): 7,788 CPM | CPM + LPS (drug 25,000 ng/ml, LPS 5 μg/ml): 2,789 CPM | CPM + LPS (drug 25,000 ng/ml, LPS 100 μg/ml): 11,683 CPM | CPM + LPS (drug 50,000 ng/ml, LPS 5 μg/ml): 3,132 CPM | CPM + LPS (drug 50,000 ng/ml, LPS 100 μg/ml): 14,065 CPM | effect on B-cell response / LPS induced proliferation, in words (in vitro): enhance B-cell proliferation | augmentation of LPS induced lymphocyte proliferation (in vitro, mouse spleen cells): 30-180% | effect on B-cell response / LPS induced proliferation, in words (in vitro, listed as Ia): stimulating the B-cell response
